# Experimental data from US12331121B2, “Efflux pump-cancer antigen multi-specific antibodies and compositions, reagents, kits and methods related thereto” (William Robert Arathoon Living Trust Dated August 29, 2016, priority 2019, dated 2025).
# Tests used:
# naïve 293T cells = assay: Enhanced cell killing (chemosensitization) of naïve 293T cells with chemotherapeutic titration; assay type: cell-based, human
# Description: HEK 293T, MCF-7, N6ADR and SKNF7 cell lines expressing Pgp were obtained from the American Type Culture Collection. N6/ADR cells is also referred to as NALM6/ADR cells. All cell lines and lines derived from them were maintained in RPMI 1640 or DMEM supplemented with up to 10% fetal bovine serum (Sigma), nonessential amino acids, and 2 mmol/L L-glutamine at 37° C. and 5% CO2 in a humidified incubator (unless otherwise indicated). Cells were used as supplied or were modified to overexpress (Ox) Pgp or were subject to having Pgp expression knocked down (KD) with lentiviral-mediated short hairpin RNA or knock out (KO) of the functional CD47 gene by CRISPR/Cas-mediated knock out technology essentially as described (Cong, L. et al. (2013) Science 339, 819-823). For vincristine and paclitaxel IC50 determination, cells were plated in normal growth medium and allowed to adhere overnight. Paclitaxel or vincristine (Sigma) were added in a dilution series and any modulators were added within ranges of 0 to 500 μM/L. Cell viability was measured 72 h later using the Celltiter-Glo Luminescent Cell Viability Assay (Promega).
# FIG. 8 provides comparisons of binding and enhanced cell killing by different bispecific antibodies (with various humanized or chimerized heavy or light chain combinations). […] Columns 5-8 (“Binding (293)”, “Binding (293 KO CD47)”, Binding (293 KO CD47, OX ABCB1)”, and “Binding (293 OX ABCB1)”) provide FACS mean fluorescence intensities of antibodies binding to the indicated cell lines compared with non-binding control antibodies: “−”=˜zero, “±”=0 to ˜0.5 Log shift, “+”=˜1 Log shift, “++”=1→2 Log shift (see FIG. 3A for examples of non-binding controls and binding antibodies).
# 293T naïve cells = assay: FACS binding to cells co-expressing Pgp and CD47; set-up: species or system human; conditions: FIG. 4
# Description: In FIG. 4A-4B, the binding of the bispecific antibody is shown by FACS analysis against a variety of cell lines. The first scan (left panel in FIG. 4A and FIG. 4B) illustrates binding of the antibody to cells co-expressing both targets, (Pgp and CD47). […] FIG. 4A-4B further show binding with titrated antibody concentrations of 600 nM, 200 nM, 66 nM, 7.4 nM and 2 nM, with the signal measured from isotype and no antibody control also provided. The respective antibody concentrations are indicated in the left panel of FIG. 4A and FIG. 4B, and the measured signal from these different concentrations are generally overlapping in the middle and right panels of FIGS. 4A and 4B. FIG. 4A and FIG. 4B represent results obtained from two different batches of antibody.
# [1] = test system: CTG-2616 patient-derived breast tumors; assay: CTG-2616 patient-derived breast cancer model; assay type: in vivo, mice; conditions: antibody 6 mg/kg and paclitaxel 5 mg/kg
# Excerpt: Cells: CTG-2616 is a ER^+/Her2^+ primary breast cancer, derived from a patient presenting with recurrent ductal adenocarcinoma of the breast.
# Mice: 5-6-weeks-old athymic Nude-Foxn1nu female nude mice (Envigo) were used in this study.
# Inoculation—Snap-Frozen pieces of patient-derived tumors were thawed, cut into 5×5×5 mm and were subcutaneously injected into anesthetized 5-6-week-old female nude mice under sterile conditions. For tumor implantation procedure, a 1-1.5 cm incision was made on the implantation site and forceps were used to implant the tumor fragment. When sufficient stock animals reached 1000-1500 mm^3, tumors were harvested for re-implantation into pre-study animals. Pre-study animals were implanted unilaterally on the left flank with tumor fragments harvested from stock animals. Each animal was implanted from a specific passage lot and documented. Pre-study tumor volumes were recorded for each experiment beginning seven to ten days after implantation. When tumors reached an average tumor volume of 150-300 mm^3, animals were matched by tumor volume into treatment or control groups to be used for dosing and dosing initiated on Day 0. All surgical procedures were conducted under sterile conditions. […]
substance,measurement,setting,value
"KBisP1.1: bispecific anti-MDR1/anti-CD47 antibody: 15D3 heavy chain, 5F9 (KT14) heavy chain, common MRK16 light chain, human IgG1",sensitivity of naïve 293T cells to paclitaxel,"naïve 293T cells; FIG. 5, 6, compared to chemo only",enhanced
same,in vitro killing of naïve 293T with vincristine,"naïve 293T cells; antibody 25 nM, compared to vincristine alone, FIG. 7",enhanced in vitro killing
same,Killing: enhanced 293 naïve cell-killing (sensitization),"naïve 293T cells; paclitaxel titration, FIG. 8",++ (≥2 Log shift)
same,FACS binding when both targets are co-expressed,293T naïve cells,specific binding
same,tumor growth with paclitaxel,[1],tumor growth inhibition
